From patent US20240041042A1, “1-(PYRIDYL)-5-AZINYLPYRAZOLE DERIVATIVES, AND THEIR USE FOR CONTROL OF UNDESIRED PLANT GROWTH” (Bayer Aktiengesellschaft, priority 2020, published 2024)
Where two headings read alike, the source gives them in different places.

Tests used:
Assay type in all cases: in vivo
[1] = tested on: Matricaria inodora (MATIN); assay: Pre-emergence herbicidal action against MATIN
Method in brief: (§1)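 Pre-emergence soil-surface spray of compound, formulated as wettable powder or emulsion concentrate, in aqueous suspension or emulsion with 0.5% additive (600 l/ha; rate 320 g/ha or less). Activity rated visually after roughly 3 weeks in the greenhouse as a percentage of untreated controls, 0% meaning no difference.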

[2] = tested on: Setaria viridis (SETVI); assay: Post-emergence herbicidal action against SETVI
Method in brief: (§2)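 Post-emergence greenhouse spray, one-leaf stage, 600 l/ha water plus 0.5% additive; WP or EC formulations; application rates 320 g/ha or lower. Visual % damage vs untreated controls at ~3 weeks.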

[3] = tested on: Echinochloa crus-galli (ECHCG); assay: Pre-emergence herbicidal action against ECHCG; conditions: dosage 320 g/ha
Method in brief: as §1

[4] = tested on: Viola tricolor (VIOTR); assay: Pre-emergence herbicidal action against VIOTR
Method in brief: as §1

[5] = tested on: Alopecurus myosuroides (ALOMY); assay: Pre-emergence herbicidal action against ALOMY; conditions: scored visually after about 3 weeks, 100% = plants have died
Method in brief: as §1

[6] = tested on: Alopecurus myosuroides (ALOMY); assay: Post-emergence herbicidal action against ALOMY; conditions: visual rating about 3 weeks after treatment vs untreated controls (100% = plants have died, 0% = like control plants)
Method in brief: as §2

[7] = tested on: Echinochloa crus-galli (ECHCG); assay: Post-emergence herbicidal action against ECHCG
Method in brief: as §2

[8] = tested on: Verconica persica (VERPE); assay: Pre-emergence herbicidal action against VERPE; conditions: dosage 320 g/ha
Method in brief: as §1

[9] = tested on: Lolium rigidum (LOLRI); assay: Pre-emergence herbicidal action against LOLRI; conditions: dosage 320 g/ha
Method in brief: as §1

[10] = tested on: Oryza sativa (ORYSA); conditions: crop plant compatibility
Method in brief: (§3)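 One-leaf-stage crops (2–3 wk post-sowing, sandy loam, greenhouse) sprayed on green parts; 0.5% additive, 600 l/ha water. Rated by eye ~3 wk later, % vs untreated; suffixes a/b/c mark different dosages.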

[11] = tested on: Zea mays (ZEAMX); conditions: for Post-emergence action against ZEAMX in %: crop plant compatibility, 80 g/ha, effect vs untreated controls
Method in brief: as §3

[12] = tested on: Verconica persica (VERPE); assay: Post-emergence herbicidal action against VERPE
Method in brief: as §2

[13] = tested on: Polygonum convolvulus (POLCO); assay: Pre-emergence herbicidal action against POLCO; conditions: dosage 320 g/ha
Method in brief: as §1

[14] = tested on: Amaranthus retroflexus (AMARE); assay: Pre-emergence herbicidal action against AMARE; conditions: visual scoring after about 3 weeks vs untreated controls
Method in brief: as §1

[15] = tested on: Setaria viridis (SETVI); assay: Pre-emergence herbicidal action against SETVI
Method in brief: as §1

[16] = tested on: Amaranthus retroflexus (AMARE); assay: Post-emergence herbicidal action against AMARE
Method in brief: as §2

[17] = tested on: Zea mays (ZEAMX); conditions: pre-emergence, 80 g/ha, crop plant compatibility, in comparison to untreated controls
Excerpt: Seeds of monocotyledonous and dicotyledonous weed plants and crop plants are placed in plastic or organic planting pots and covered with soil. The compounds of the invention, formulated in the form of wettable powders (WP) or as emulsion concentrates (EC), are then applied to the surface of the covering soil as aqueous suspension or emulsion with addition of 0.5% additive at a water application rate equivalent to 600 l/ha. After the treatment, the pots are placed in a greenhouse and kept under good growth conditions for the trial plants. After about 3 weeks, the effect of the preparations is scored visually in comparison with untreated controls as percentages. For example, 100% activity=the plants have died, 0% activity=like control plants.
The observed effects on selected crop plants are reported here in comparison to the untreated controls (values in %). The appendices “a” “b” and “c” give differentiation by dosage used with otherwise the same crop plants tested.

[18] = tested on: Avena fatua (AVEFA); assay: Pre-emergence herbicidal action against AVEFA; conditions: 320 g/ha, visual scoring after about 3 weeks vs untreated controls
Method in brief: as §1

[19] = tested on: Avena fatua (AVEFA); assay: Post-emergence herbicidal action against AVEFA; conditions: 320 g/ha, visual rating about 3 weeks after treatment
Method in brief: as §2

[20] = tested on: Lolium rigidum (LOLRI); assay: Post-emergence herbicidal action against LOLRI; conditions: dosage 320 g/ha
Method in brief: as §2

[21] = tested on: Pharbitis purpurea (PHBPU); assay: Post-emergence herbicidal action against PHBPU; conditions: dosage 320 g/ha
Method in brief: as §2

[22] = tested on: Polygonum convolvulus (POLCO); assay: Post-emergence herbicidal action against POLCO; conditions: dosage 320 g/ha
Method in brief: as §2

[23] = tested on: Matricaria inodora (MATIN); assay: Post-emergence herbicidal action against MATIN; conditions: dosage 320 g/ha
Method in brief: as §2

[24] = tested on: Abutilon theophrasti (ABUTH); assay: Post-emergence herbicidal action against ABUTH; conditions: 320 g/ha, visual rating about 3 weeks after treatment vs untreated controls (100% = plants have died, 0% = like control plants)
Method in brief: as §2

[25] = tested on: Pharbitis purpurea (PHBPU); assay: Pre-emergence herbicidal action against PHBPU; conditions: dosage 320 g/ha
Method in brief: as §1

[26] = 80 g/ha, visual rating about 3 weeks after treatment vs untreated controls (100% = plants have died, 0% = like control plants)

| Structure (SMILES) | Pre-emergence action against MATIN in % ([1]; dosage 320 g/ha) [%] | Pre-emergence action against ECHCG in % [3] [%] | Pre-emergence action against VIOTR in % ([4]; 320 g/ha, Viola tricolor) [%] | Pre-emergence action against VIOTR in % ([4]; dosage 80 g/ha) [%] | Pre-emergence action against ALOMY ([5]; 320 g/ha) [%] | Post-emergence action against ECHCG in % ([7]; dosage 80 g/ha) [%] | Pre-emergence action against VERPE in % [8] [%] | Pre-emergence action against LOLRI in % [9] [%] | Post-emergence action against VERPE in % ([12]; dosage 80 g/ha) [%] | Pre-emergence action against POLCO in % [13] [%] | Pre-emergence action against AMARE in % ([14]; 80 g/ha) [%] | Pre-emergence action against AMARE in % ([14]; 320 g/ha) [%] | Pre-emergence action against SETVI in % ([15]; dosage 320 g/ha) [%] | Post-emergence action against AMARE in % [16, 26] [%] | Pre-emergence action against ZEAMX in % [17] [%] | Post-emergence action against SETVI in % ([2]; dosage 320 g/ha) [%] | Post-emergence action against ECHCG in % ([7]; dosage 320 g/ha) [%] | Post-emergence action against PHBPU in % [21] [%] | Post-emergence action against ZEAMX in % [11] [%] | Post-emergence action against VERPE in % ([12]; 320 g/ha, VERPE) [%] | other results |
| --- | --- | --- | --- | --- | --- | --- | --- | --- | --- | --- | --- | --- | --- | --- | --- | --- | --- | --- | --- | --- | --- |
| CC(C)N(C)S(=O)(=O)NC(=O)COc1nn(-c2ncccc2F)c(-c2ccc(F)nc2)c1Br [Example I-53] | 90 | 80 | 100 | 90 | 100 | 80 | 100 | 100 | 80 | 90 | 90 | 100 | 100 | 90 | 20 |  |  |  |  |  | Post-emergence action against SETVI in % ([2]; dosage 80 g/ha): 80%; Pre-emergence action against ALOMY ([5]; 80 g/ha): 80%; Post-emergence action against ALOMY in % ([6]; 80 g/ha): 90%; Post-emergence action against ORYSA in % ([10]; 20 g/ha, effect vs untreated controls): 10%; Post-emergence action against ZEAMX in % (crop plant compatibility) ([11]; 20 g/ha, ZEAMX, effect in comparison to untreated controls): 10%; Pre-emergence action against SETVI in % ([15]; dosage 80 g/ha): 90%; Pre-emergence action against AVEFA in % [18]: 100% |
| CCOC(=O)COc1nn(-c2ccccn2)c(-c2ccc(F)nc2)c1F [Example I-305] | 90 | 90 |  |  | 90 | 90 |  | 90 |  |  | 80 | 90 | 90 | 80 | 0 | 90 | 90 | 90 | 0 | 90 | Post-emergence action against AVEFA in % [19]: 80%; Pre-emergence action against MATIN in % ([1]; dosage 80 g/ha): 80%; Post-emergence action against ALOMY in % ([6]; 320 g/ha): 100%; Post-emergence action against LOLRI in % [20]: 90%; Post-emergence action against POLCO in % [22]: 80%; Post-emergence action against AMARE in % ([16]; 320 g/ha, visual rating about 3 weeks after treatment): 90%; Post-emergence action against MATIN in % [23]: 80% |
| COCCOC(=O)COc1nn(-c2ncccc2C(F)(F)F)c(-c2cncc(F)c2)c1Br [Example I-157] |  | 80 | 100 | 80 | 80 | 80 | 90 |  | 80 | 90 |  |  |  |  | 10 | 80 | 90 | 80 | 20 | 90 | Post-emergence action against ABUTH in % [24]: 80%; Post-emergence action against ORYSA in % ([10]; 80 g/ha, effect in comparison to untreated controls): 10%; Pre-emergence action against PHBPU in % [25]: 90% |
